Where two headings read alike, the source gives them in different places.
Key:
Format in all cases: cell-based, human
[1] = tested on: MCF-7 breast cancer cells; test: MTT cytotoxicity test, MCF-7; conditions: MCF-7, 24 h incubation, read-out: IC50, cell viability (MTT)
Protocol: MCF-7 and MDA-MB-231 human breast cancer cell lines, as well as MCF-10A normal human breast epithelial cells, were acquired from the American Type Culture Collection (ATCC, Manassas, VA, USA). The characteristics of the breast cancer cell lines used in this study are compared in Table 1. MCF-7 and MDA-MB-231 cells were cultured in Dulbecco’s modified Eagle’s medium (Gibco, San Diego, CA, USA), while MCF-10A cells were cultured in the mammary epithelial cell growth medium with the following supplements: BPE, hEGF, insulin, hydrocortisone, GA-1000 (Lonza, Basel, Switzerland). All media were complemented by 10% of fetal bovine serum (FBS) and 1% of the following antibiotics: penicillin and streptomycin (both Gibco, San Diego, CA, USA). The cells were maintained in an incubator that provides the optimal growth conditions for the cell culture: 5% CO2, 37 °C, and humidity in a range of 90–95%. The cells were cultured in 100 mm plates (Sarstedt, Newton, NC, USA). Subsequently, after obtaining a subconfluent cell culture, the cells were detached with 0.05% trypsin with 0.02% EDTA (Gibco, San Diego, CA, USA). […] In this study, cells that obtained 80% confluence were used. The MTT assay was used to determine the cytotoxic effects of the compounds in the study on MCF-7 and MDA-MB-231 breast cancer cells as well as MCF-10A normal human breast epithelial cells based on Carmichael’s method. […] After this time, the medium was removed, and the cell monolayer was washed with warm phosphate-buffered saline (PBS) without calcium and magnesium. In the next step, PBS and MTT solution in PBS (5 mg/mL) were added to each well to obtain a final MTT concentration of 0.5 mg/mL, and then the cells were incubated for 4 h (37 °C temperature, 5% CO2, 90–95% humidity). After the incubation period, the contents of each well were removed, 1 mL of DMSO was added to dissolve the formazan, and then the plate with the added DMSO was mixed for 5–10 min on a microplate shaker (Boeco, Hamburg, Germany). Then, 10 µL of Sorensen’s glycine buffer (a solution of 0.1 M glycine and 0.1 M sodium chloride adjusted to pH 10.5 with 0.1 M sodium hydroxide) was added. The absorbance of the obtained solution was immediately measured at a wavelength of λ = 570 nm using a Thermo Scientific Evolution 201 UV–VIS spectrophotometer (Thermo Fisher Scientific, Waltham, MA, USA). The absorbance result obtained in the control cells (without the addition of the tested compounds) was taken as 100%, while the viability of cells incubated with the tested compounds was presented as a percentage of the control value.

caspase 8 [2] = test: Caspase 8 activity (FAM-FLICA, flow cytometry), MCF-7; conditions: 24 h
Protocol: (§1) The FAM-FLICA® Caspase Assay kits (all from ImmunoChemistry Technologies, Bloomington, MN, USA) and flow cytometer (BD FACSCanto II, BD Biosciences Systems, San Jose, CA, USA) were used to evaluate the activity of caspase 3/7, 8, and 9. MCF-7 and MDA-MB-231 cells were treated with selenoesters under the study (EDAG-1 and EDAG-8) and a reference agent (cisplatin) at two different concentrations (0.5 and 1 µM; treatment duration: 24 h). Following this, cells were collected, washed twice with cold PBS, and resuspended in an Apoptosis Wash Buffer to a final concentration of 5 × 10^5 cells/mL. In the next step, 290 µL each of cell suspension was taken and transferred into tubes. Then 10 µL of FLICA solution diluted immediately before use (1:5 v/v, using PBS) was added to the cells, mixed by pipetting, and incubated in the dark for 1 h at 37 °C. After this time, the cells were washed twice with 2 mL Apoptosis Wash Buffer, centrifuged, and resuspended in 300 µL of the buffer. Thus, prepared samples were immediately analyzed using a BD FACSCanto II flow cytometer (10,000 events) with the FACSDiva 6.0 software (both from BD Biosciences Systems, San Jose, CA, USA). The equipment calibration was carried out using the BD Cytometer Setup and Tracking Beads (BD Biosciences, San Diego, CA, USA).

caspase 8 [3] = test: Caspase 8 activity (FAM-FLICA, flow cytometry), MDA-MB-231; conditions: 24 h
Protocol: as §1

Bax = Bax protein level by flow cytometry, MDA-MB-231; conditions: 24 h
Protocol: (§2) For this purpose, Akt (PE), Bax (FITC), Bcl-2 (Alexa Fluor® 647), LC3A/B (Alexa Fluor® 488), and p53 (Alexa Fluor® 488) antibodies conjugated to different fluorochromes (all from Cell Signaling Technology, Beverly, MA, USA) were utilized. Each assay was performed according to the manufacturer's protocol available on their website. After incubation with the tested compounds, the cells were centrifuged, resuspended in 4% formaldehyde (100 μL/1 × 10^6 cells), and fixed for 15 min at room temperature. Afterward, to remove the formaldehyde, the cells were washed by centrifugation with excess PBS and the permeabilization step was triggered. For this purpose, ice-cold 90% methanol was added to the pre-chilled cell pellet, gently vortexed, and incubated for 1 h on ice. Later, the cells were washed by centrifugation with excess PBS again, resuspended in 100 μL of 1:100 diluted primary antibody (stain buffer was used for dilution), and incubated for 1 h at room temperature in the dark. After incubation, the cells were washed, resuspended in 300 μL PBS, and immediately tested with a flow cytometer (BD FACSCanto II, BD Biosciences Systems, San Jose, CA, USA; 10,000 events measured). The obtained results were analyzed using the FACSDiva 6.0 software (BD Biosciences Systems, San Jose, CA, USA). In the case of the p53 protein, the MRF values were obtained first during the flow cytometer readout utilizing FACSDiva software and later analyzed using FCS Express 7 (De Novo Software, Pasadena, CA, USA). The equipment calibration was performed using the BD Cytometer Setup and Tracking Beads (BD Biosciences, San Diego, CA, USA).

Bcl-2 [4] = test: Bcl-2 protein level by flow cytometry, MCF-7; conditions: 24 h
Protocol: as §2

Bcl-2 [5] = test: Bcl-2 protein level by flow cytometry, MDA-MB-231; conditions: 24 h
Protocol: as §2

caspase 9 [6] = test: Caspase 9 activity (FAM-FLICA, flow cytometry), MCF-7; conditions: 24 h
Protocol: as §1

caspase 9 [7] = test: Caspase 9 activity (FAM-FLICA, flow cytometry), MDA-MB-231; conditions: 24 h
Protocol: as §1

p53 = p53 protein expression by flow cytometry, MDA-MB-231; conditions: 24 h
Protocol: as §2

caspase 7 = test: Caspase 3/7 activity (FAM-FLICA, flow cytometry), MCF-7; conditions: MCF-7 (lack caspase 3), 24 h
Protocol: as §1

| SMILES | IC50 [1] [nM] | Active caspase 8 ± SD (cells) (caspase 8 [2]; MCF-7, 0.5 μM) [%] | Active caspase 8 ± SD (cells) (caspase 8 [2]; MCF-7, 1 μM) [%] | Active caspase 8 ± SD (cells) (caspase 8 [3]; MDA-MB-231, 0.5 μM) [%] | Active caspase 8 ± SD (cells) (caspase 8 [3]; MDA-MB-231, 1 μM) [%] | Bax positive cells ± SD (Bax; MDA-MB-231, 0.5 μM) [%] | Bax positive cells ± SD (Bax; MDA-MB-231, 1 μM) [%] | Bcl-2 negative cells ± SD (Bcl-2 [4]; MCF-7, 0.5 μM) [%] | Bcl-2 negative cells ± SD (Bcl-2 [4]; MCF-7, 1 μM) [%] | Bcl-2 negative cells ± SD (Bcl-2 [5]; MDA-MB-231, 0.5 μM) [%] | Bcl-2 negative cells ± SD (Bcl-2 [5]; MDA-MB-231, 1 μM) [%] | Active caspase 9 ± SD (cells) (caspase 9 [6]; MCF-7, 0.5 μM) [%] | Active caspase 9 ± SD (cells) (caspase 9 [6]; MCF-7, 1 μM) [%] | Active caspase 9 ± SD (cells) (caspase 9 [7]; MDA-MB-231, 0.5 μM) [%] | Active caspase 9 ± SD (cells) (caspase 9 [7]; MDA-MB-231, 1 μM) [%] | p53 protein expression, MRF (p53; MDA-MB-231, 0.5 μM) | p53 protein expression, MRF (p53; MDA-MB-231, 1 μM) | Active caspase 7 ± SD (cells) (caspase 7; 0.5 μM) [%] | Active caspase 7 ± SD (cells) (caspase 7; 1 μM) [%] | IC50 ([1]; Homo sapiens, MCF7) [nM] |
| --- | --- | --- | --- | --- | --- | --- | --- | --- | --- | --- | --- | --- | --- | --- | --- | --- | --- | --- | --- | --- |
| N.N.[Cl][Pt][Cl] [Cisplatin, reference compound] | > 5000 | 3.7 ± 0.2 | 4.1 ± 0.2 | 7.3 ± 0.7 | 8.0 ± 1.6 | 1.3 ± 0.3 | 1.4 ± 0.1 | 2.7 ± 0.2 | 2.7 ± 0.1 | 4.3 ± 0.3 | 4.5 ± 0.6 | 5.9 ± 0.1 | 6.1 ± 0.6 | 2.7 ± 0.1 | 2.8 ± 0.3 | 375.5 ± 3.5 | 423.5 ± 2.1 | 4.3 ± 0.3 | 4.6 ± 0.3 | – |
| CC(=O)C[Se]C(=O)c1ccc(C(=O)[Se]CC(C)=O)cc1 [EDAG-1, Se,Se-bis(2-oxopropyl) benzene-1,4-bis(carboselenoate)] | – | 6.1 ± 0.6 | 6.6 ± 1.1 | 11.5 ± 0.9 | 14.4 ± 1.2 | 12.5 ± 2.3 | 37.8 ± 5.1 | 13.9 ± 0.9 | 38.4 ± 4.0 | 36.1 ± 1.6 | 68.9 ± 5.7 | 7.1 ± 0.7 | 12.8 ± 1.4 | 5.2 ± 0.7 | 8.5 ± 0.6 | 559.3 ± 63.1 | 593.0 ± 10.8 | 5.7 ± 0.5 | 6.9 ± 0.5 | 470 ± 60 |
| CC(=O)C[Se]C(=O)c1cc(C(=O)[Se]CC(C)=O)cc(C(=O)[Se]CC(C)=O)c1 [EDAG-8, Se,Se,Se-tris-(2-oxopropyl) benzene-1,3,5-tris-(carboxyselenoate)] | – | 8.5 ± 0.8 | 19.4 ± 2.6 | 15.0 ± 2.0 | 26.6 ± 3.6 | 34.5 ± 3.4 | 60.3 ± 8.8 | 45.2 ± 9.3 | 63.6 ± 3.7 | 51.7 ± 3.5 | 74.9 ± 2.7 | 15.5 ± 0.5 | 22.8 ± 2.4 | 8.4 ± 0.9 | 32.5 ± 3.8 | 624.8 ± 49.7 | 661.5 ± 18.6 | 7.4 ± 0.8 | 16.3 ± 2.6 | 610 ± 50 |

Reference: paper PMC11277004, “Di- and Triselenoesters—Promising Drug Candidates for the Future Therapy of Triple-Negative Breast Cancer” (International Journal of Molecular Sciences, 2024)
